According to US20200369674A1, “ANTI-PAIN COMPOUND AND PREPARATION METHOD THEREOF” (LUNAN PHARMACEUTICAL GROUP CORPORATION, priority 2017, published 2020):

Legend:
ICR mice [1] = experiment: Acetic acid writhing test; type: in vivo; set-up: key to Inhibition rate (%): Symbol “—” indicates that the data obtained at this dose was not significantly different from the vehicle control group; conditions: 1 mg/kg intragastric, 0.6% acetic acid ip two hours after administration
Experimental: (§1) ICR mice, 18-22 g, half of them being male and the other half being female, provided by the Department of Laboratory Animals, Peking University (License No.: SCXK (Beijing) 2016-0010).
ICR mice, half of them being male and the other half being female, were randomly grouped, 8 mice per group. Vehicle control group (double-distilled water), ibuprofen control group, and groups for samples to be tested (the compounds and doses thereof were shown in Table 2) were set. All drugs were dissolved in double-distilled water before administration, and given by intragastric administration at predetermined doses. Two hours after the administration, the mice were intraperitoneally injected with 0.6% acetic acid solution (10 ml/kg, ip), and the number of times the mice writhed (abdomen depressed, buttock raised, body elongated) was recorded within 5-20 minutes. The inhibition rate % of compound on writhing pain in mice was calculated according to the following formula.
Inhibition rate %=(number of writhing times in vehicle control group−number of writhing times in test group)/number of writhing times in vehicle control group×100

ICR mice [2] = experiment: Formalin experiment; type: in vivo; conditions: Mus musculus, po, 2 h; 1 mg/kg intragastric, 2.5% formalin two hours after administration, phase II 10-60 minutes; read-out: Phase II pain inhibition rate (%)
Experimental: as §1
ICR mice, half of them being male and the other half being female, were randomly grouped, 8 mice per group. Vehicle control group (double-distilled water) and groups for samples to be tested were set, in which the compounds and doses thereof were shown in Table 3. All drugs were dissolved in double-distilled water before administration, and given by intragastric administration at predetermined doses. Two hours after administration, the mice were injected with 20 ul of 2.5% formalin solution in the right hind foot, and the time (s) of licking or biting foot was recorded as an index of pain response, in which 0-5 minutes was phase I, 10-60 minutes was phase II, and the total observation time was 60 minutes. The phase II pain inhibition rate of compound in mice was calculated according to the following formula:
Inhibition rate %=(time of licking or biting foot in vehicle control group−time of licking or biting foot in test group)/time of licking or biting foot in vehicle control group×100

CCI rats = experiment: Mechanical stimulation paw withdrawal threshold (MWT) in CCI rats; type: in vivo, SD rats; conditions: for inhibition rate (absolute %): PTE % vs vehicle; for MWT: mean±SEM; for inhibition rate (relative %): relative to sham minus vehicle
Experimental: SD rats, body weight 180 g-220 g, half of them being male and the other half being female, provided by the Department of Laboratory Animals, Peking University. The rats were raised in a standard environment with temperature of 22±0.5° C. and relative humidity of 55±5%, 12 h/12 h light-dark cycle, and fed with standard feed.
Rat was anesthetized with pentobarbital sodium (60 mg/kg, i.p.), the right hind limb was surgically shaved, fixed in the prone position, a longitudinal incision was made along the middle of the right hind limb of the rat, the muscle was bluntly separated, the sciatic nerve was exposed, and the sciatic nerve bifurcate proximal end was loosely ligated with 4-0 silk suture for 4 times, with an interval of about 1 mm each time, in which the degree of tightness was suitable when it was observed that the right hind leg was slightly shaken. After ligation, the muscle and skin were sutured in sequence. For the sham-operated group, the sciatic nerve was only exposed, but not ligated. The success of modeling was determined by observing whether the hind limb of the rat's operation side was closed, slightly valgus and often vacated, and by measuring the mechanical stimulation paw withdrawal threshold and the thermal stimulation paw withdrawal latency of the rat.
Before surgery, the mechanical stimulation paw withdrawal thresholds and the thermal stimulation paw withdrawal latencies in the rats were determined, and the rats were grouped as: sham operation group (sham), vehicle group (double-distilled water, i.g.), DXL-A-22 group (2 mg/kg, i.g.), DXL-A-24 group (1 mg/kg, i.g.), and Gabapentin group (100 mg/kg, i.g.). All compounds and drugs were dissolved in double-distilled water, and given by intragastric administration at 1 mL/100 g. From the first day after surgery, the administration was carried out every day, and the mechanical stimulation paw withdrawal threshold and the thermal stimulation paw withdrawal latency were measured 2 hours after administration.
The mechanical stimulation paw withdrawal threshold (MWT) of rats was detected by von Frey electronic pain tester. The measurement was carried out on the days 5, 7 and 14 after operation. The rats were placed in a transparent plexiglass box (whose bottom was a wire mesh with a gap of 1 mm^2) to adapt to the environment for 30 min. After the rats had no exploration action, the von Frey electronic pain tester was used to stimulate the middle position of paw at the operation side of the rat, and the maximum force caused by rat paw withdrawal response (i.e., MWT) was recorded. The inhibition rate of the compound was calculated according to the following formula:
Absolute increase rate (i.e., PTE %): PTE %=(MWT of test group−MWT of vehicle group)/MWT of vehicle group×100 (1)
Relative increase rate: Inhibition rate %=(MWT of test group−MWT of vehicle group)/(MWT of Sham operation group−MWT of vehicle group)×100 (2)

ICR mice [3] = experiment: Xylene-induced ear swelling test in mice (Effect Example 6); type: in vivo; conditions: 1 mg/kg i.g., 30 μL xylene one hour after administration; for Swelling degree: mean±SD
Experimental: ICR mice, body weight 18 g-22 g, half of them being male and the other half being female, provided by the Department of Laboratory Animals, Peking University. The animals were raised in a standard environment: temperature 23±1° C., relative humidity 55±5%, light-dark cycle 12 h/12 h, and fed with standard pellet feed.
Mice were randomly divided into 5 groups, 8 mice per group, half of them being male and the other half being female. Vehicle control group (double-distilled water, i.g.), dexamethasone control group (2 mg/kg, i.g.), compound DXL-A-22 group (1 mg/kg, i.g.), and compound DXL-A-24 group (1 mg/kg, i.g.) were set. All drugs were dissolved in double-distilled water before administration, and given by intragastric administration at 0.1 mL/10 g. One hour after administration, 30 μL of xylene was evenly smeared on the inner and outer sides of right ear of mouse to cause inflammation. After 0.5 hour, the left and right ears of mouse were cut, and circular ear pieces of the same size were punched at the same position on the left and right ears using the punch (diameter 6 mm) respectively, and weighed for the weights of the left and right ear pieces. The difference between the weight of the right ear after applying xylene and the weight of the left ear without applying xylene was used as swelling degree index (i.e., swelling degree). The swelling degree was calculated according to formula (1). The intensity of anti-inflammatory effect was expressed as inhibition rate (%), and the inhibition rate (%) was calculated according to formula (2).
Swelling degree=weight of right ear piece−weight of left ear piece (1)
Inflammation inhibition rate (%)=(ear swelling degree in vehicle control group−ear swelling degree in drug group)/ear swelling degree in vehicle control group×100% (2)

[4] = 2 mg/kg i.g. daily, Day 5 after operation, section 3.1
[5] = 2 mg/kg i.g. daily, Day 7 after operation, section 3.1
[6] = 2 mg/kg i.g. daily, Day 14 after operation, section 3.1
[7] = 1 mg/kg i.g. daily, Day 5 after operation, section 3.3
[8] = 1 mg/kg i.g. daily, Day 7 after operation, section 3.3
[9] = 1 mg/kg i.g. daily, Day 14 after operation, section 3.3

Br.Brc1ccc(N2CC[N+]3(CCCC3)CC2)cc1 [DXL-A-22, 8-(4-bromophenyl)-5,8-diazaspiro[4.5]decan-5-ium bromide]
Inhibition rate (%) (ICR mice [1]): — | inhibition in vivo at 1 mg/kg (ICR mice [2]): 52.6% | inhibition rate (absolute %) (CCI rats; [4]): 76.88% | MWT (CCI rats; [4]): 19.28 ± 1.44**/ | inhibition rate (relative %) (CCI rats; [4]): 31.01% | inhibition rate (absolute %) (CCI rats; [5]): 116.83% | MWT (CCI rats; [5]): 22.16 ± 0.79**/ | inhibition rate (relative %) (CCI rats; [5]): 43.18% | inhibition rate (absolute %) (CCI rats; [6]): 108.81% | MWT (CCI rats; [6]): 22.05 ± 0.74**/ | inhibition rate (relative %) (CCI rats; [6]): 41.26% | Inhibition rate (%) (ICR mice [3]): 42.62% | Swelling degree (ICR mice [3]): 5.48 ± 0.16 mg

FC(F)(F)c1ccc(N2CC[N+]3(CCCC3)CC2)cc1.[Br-] [DXL-A-24, 8-(4-(trifluoromethyl)phenyl)-5,8-diazaspiro[4.5]decan-5-ium bromide]
Inhibition rate (%) (ICR mice [1]): — | inhibition in vivo at 1 mg/kg (ICR mice [2]): 50.2% | inhibition rate (absolute %) (CCI rats; [7]): 75.78% | MWT (CCI rats; [7]): 20.32 ± 1.09**/ | inhibition rate (relative %) (CCI rats; [7]): 35.35% | inhibition rate (absolute %) (CCI rats; [8]): 117.94% | MWT (CCI rats; [8]): 22.84 ± 1.64**/ | inhibition rate (relative %) (CCI rats; [8]): 47.89% | inhibition rate (absolute %) (CCI rats; [9]): 75.09% | MWT (CCI rats; [9]): 20.31 ± 1.57**/ | inhibition rate (relative %) (CCI rats; [9]): 33.24% | Inhibition rate (%) (ICR mice [3]): 51.41% | Swelling degree (ICR mice [3]): 4.64 ± 0.11 mg
